Holding throughout (assay type): physicochemical
Data set [1] is described as follows: Heat stability of crystalline form. The settings on record: solid crystalline form.
The nature of data set [2]: Hygroscopicity versus relative humidity.
The nature of data set [3]: Conversion of crystal form on being dissolved or slurried in solvents.
Data set [4] can be described thus: Stability of the crystal form (general statement).
Data set [5] is described as follows: Stability of Form N-5 slurries in ethanol:water mixtures. The settings on record: ethanol:water mixtures (1:1, 1:1.3 and 1:2) at 5, 25 and 30° C. after 1 h, 48 h and 5 days; confirmed by DSC and FTIR. As for the experimental part:
The stability of N-5 slurries in ethanol:water mixtures (1:1, 1:1.3 and 1:2) at 5, 25 and 30° C. was determined after 1 h, 48 h and 5 days. […] DSC and FTIR confirmed this.
A general note: Differential scanning calorimetry records heat flow against a reference as temperature is scanned.

Take `CC(C)c1cc(Oc2c(Br)cc(NC(=O)CC(=O)O)cc2Br)ccc1O` [Form N-6, 3-[[3,5-dibromo-4-[4-hydroxy-3-(1-methylethyl)-phenoxy]-phenyl]-amino]-3-oxopropanoic acid]: in data set [1], the “heat stable up to” value was “at least 170 °C”. Besides, the “non-hygroscopic up to a relative humidity of” value in data set [2] is reported as 95%.

Regarding `CC(C)c1cc(Oc2c(Br)cc(NC(=O)CC(=O)O)cc2Br)ccc1O` [Form N-1, 3-[[3,5-dibromo-4-[4-hydroxy-3-(1-methylethyl)-phenoxy]-phenyl]-amino]-3-oxopropanoic acid, reference compound], the “heat stable up to” value in data set [1] is “around 125 °C”. Moreover, the “becoming hygroscopic at a relative humidity of” value in data set [2] was determined as 50%. The “form conversion on being dissolved or slurried” value in data set [3] (common solvents: alcohols such as methanol, ethanol or isopropanol, nitromethane or nitroethane, alcohol/water mixtures) was “converts into Form N-5 and/or Form N-6”. Besides, the “stability of crystal form” value in data set [4] was “unstable”.

Regarding `CC(C)c1cc(Oc2c(Br)cc(NC(=O)CC(=O)O)cc2Br)ccc1O` [Form N-5, 3-[[3,5-dibromo-4-[4-hydroxy-3-(1-methylethyl)-phenoxy]-phenyl]-amino]-3-oxopropanoic acid], in data set [1], the “heat stable up to” value was “at least 170 °C”. The “non-hygroscopic up to a relative humidity of” value in data set [2] amounted to 95%. Also, in data set [5], the “stability of slurries (transformation to other form)” value was “did not transform to any other form”. Moreover, in data set [3] (slurried in the presence of an alcohol, after very long periods conversion into Form N-6 may occur), the “stability when slurried in the presence of an alcohol” value is “stable for a number of days”.
